In brackets after ≈: the same amount, converted by molar mass. Like-named read-outs stand apart in the source and are kept apart here.
Legend:
[1] = system: HIV; assay: Testing preparations against HIV in cell culture (infected human donor lymphocytes); assay type: cell-based; details: for MIC: Human immunodeficiency virus 1, 72 h, lowest concentration without giant cells; for IC50: Human immunodeficiency virus 1, Lymphocyte, 72 h
Experimental: Testing preparations against HIV in cell culture
Description of the method
The complete medium additionally contains 20% foetal calf serum and 40 IU/ml recombinant interleukin 2.
Lymphocytes which have been isolated from fresh donor blood by means of Ficoll® gradient centrifugation are cultured, at 37° C. for 36 h and under 5% CO2, in complete medium in the added presence of […] phytohemagglutinin (Wellcome). After the addition of 10% DMSO, the cells are frozen at a cell density of 5×10^6 and stored in liquid nitrogen. For the experiment, the cells are thawed, washed in RPMI medium and cultured for 3-4 days in complete medium.
The preparations for testing were dissolved in DMSO at a concentration of 16.7 mg/ml and diluted to 1 mg/ml in complete medium. 0.4 ml of medium was initially introduced in 24-well multiwell plates. After 0.1 ml of the dissolved preparation had been added to the upper row of the plate, a geometrical dilution series was produced by transferring 0.1 ml on each occasion. Preparation-free controls always contained 0.4 ml of complete medium containing 0.5% DMSO.
Lymphocyte cultures having a cell count of 5×10^5 cells/ml were infected by adding a 1/50 volume of the supernatant from lymphocyte cultures infected with HIV. The titer of these culture supernatants was determined, by end point dilution, to be 1-5×10^6 infectious units/ml. After incubating at 37° C. for 30 min, the infected lymphocytes were centrifuged off and taken up once again in the same volume of medium. 0.6 ml of this cell suspension was added to each of the wells in the test plate. The assay mixtures were incubated at 37° C. for 3 days.
The infected cell cultures were examined under the microscope for the presence of giant cells, which indicate that the virus is multiplying actively in the culture. The lowest preparation concentration at which no giant cells appeared was defined as the inhibitory concentration against HIV (MIC value). As a control, the presence of HIV antigen in the supernatants from the culture plates was determined using a test for HIV antigen in accordance with the manufacturer's (Organon) instructions.

[2] = biological target: T1, HIV reverse transcriptase (Human immunodeficiency virus type 1 group M subtype B, UniProt P04585); assay: Inhibition of HIV reverse transcriptase, scintillation proximity assay (SPA); assay type: biochemical; details: RT-SPA, 60 min, 37° C., read-out: Reverse Transcriptase Asaay IC-50 (converted)
T1 construct: purchased HT-Biotechnology LTD, Cambridge, UK; host or cells: E. coli
Experimental: Investigation of the ability of the substances to inhibit the HIV reverse transcriptase
The activity of the reverse transcriptase (RT) was measured by means of a scintillation proximity assay (SPA).
The reagent kit for the RT-SPA was obtained from Amersham/Buchler (Braunschweig). The RT enzyme (originating from HIV and cloned in E. coli) was provided by HT-Biotechnology LTD, Cambridge, UK.
The test was carried out in accordance with the supplier's (Amersham) methods manual--with the following modifications:
bovine serum albumin was added to the assay buffer to a final concentration of 0.5 mg/ml.
The test was carried out in Eppendorf reaction tubes using a mixture volume of […].
The supplier's RT concentrate (5000 U/ml) was diluted in 20 mM tris-HCl buffer; pH 7.2; 30% glycerol to an activity of 15 U/ml.
The assay mixtures were incubated for 60 min (at 37° C.).
After the reaction had been stopped and "developed" using the bead suspension, […] of assay mixture was transferred into 4.5 ml of 10 mM tris-HCl buffer; pH 7.4; 0.15M NaCl
and the tritium activity was measured in a β counter.
In order to carry out a preliminary test for inhibitor activity, the substances were dissolved in DMSO (stock solution concentration=1 mg/ml) and tested at 10^-1, 10^-2, 10^-3, etc. dilutions in DMSO.
In order to determine the IC50 values, the stock solutions of inhibitor were further diluted in 50 mM tris-HCl buffer, pH 8, and tested at suitable concentrations.
The concentration giving rise to 50% inhibition of the enzyme was ascertained from the graphic depiction of RT activity versus log Cinh.

[3] = HIV-infected lymphocytes, 3 days, 37° C.
[4] = HIV-infected lymphocytes, 3 days, 37° C., read-out: IC-50

SMILES	MIC [1, 3]	IC50 [1, 4]	IC50 ([2]; molar value in parentheses)	IC50 [2]	further results
C=C1c2cc(Cl)ccc2NC(=S)C1(C)C [Compound 1]	1 mg/L (≈ 4.21 µM)	≥ 0.04 mg/L	–	–	–
CCCC=C1c2cc(Cl)ccc2NC(=O)C1(C)C [Compound 2, 4-n-Butylene-6-chloro-3,4-dihydro-3,3-dimethylquinolin-2(1H)-one]	0.1 mg/L (≈ 0.379 µM)	~0.015 mg/L (≈ 0.0569 µM)	0.063 µM	0.0645 µM	–
CCC=C1c2cc(Cl)ccc2NC(=O)C1(C)C [Compound 3]	< 0.08 mg/L	0.03 mg/L (≈ 0.12 µM)	–	0.108 µM	–
CCC=C1c2cc(Cl)ccc2NC(=S)C1(C)C [Compound 4]	0.0016 mg/L (≈ 0.00602 µM)	< 0.00032 mg/L	0.008 µM	0.00752 µM	–
CCCC=C1c2ccccc2NC(=O)C12CCC2 [Compound 5]	0.2 mg/L (≈ 0.829 µM)	0.04 mg/L (≈ 0.166 µM)	0.479 µM	0.479 µM	–
CCCC=C1c2ccccc2NC(=O)C12CCCC2 [Compound 6, E/Z-4-n-butylene-3,3-cyclopentylidene-3,4-dihydroquinolin-2(1H)-one]	–	–	0.113 µM	0.113 µM	–
CCCC=C1c2ccccc2NC(=S)C12CCC2 [Compound 7]	< 0.008 mg/L	~0.00032 mg/L (≈ 0.00124 µM)	0.018 µM	0.0194 µM	–
CCCC=C1c2ccccc2NC(=S)C12CCCC2 [Compound 8, E/Z-4-n-butylene-3,3-cyclopentylidene-3,4-dihydroquinolin-2(1H)-thione]	0.008 mg/L (≈ 0.0295 µM)	–	0.016 µM	0.0147 µM	IC50 [1]: 0.0016 mg/L (≈ 0.00589 µM)
CC(C)=C1c2cc(Cl)ccc2NC(=S)C1(C)C [Compound 10]	–	–	0.116 µM	0.117 µM	IC50 ([1]; HIV-infected lymphocytes, 3 days, unit as printed for compound 10, read-out: IC-50): 0.025 mg/L (≈ 0.0941 µM)
C=CC=C1c2cc(Cl)ccc2NC(=O)C1(C)C [Compound 13]	> 0.2 mg/L	0.04 mg/L (≈ 0.161 µM)	–	–	–
C=CC=C1c2cc(Cl)ccc2NC(=S)C1(C)C [Compound 14]	< 0.008 mg/L	0.005 mg/L (≈ 0.019 µM)	0.018 µM	0.0152 µM	–
CCCCCC=C1c2cc(Cl)ccc2NC(=S)C1(C)C [Compound 16]	< 0.2 mg/L	~0.03 mg/L (≈ 0.0974 µM)	–	–	–
CC(C)C=C1c2cc(Cl)ccc2NC(=O)C1(C)C [Compound 17]	< 0.02 mg/L	~0.04 mg/L (≈ 0.152 µM)	–	–	–
CC(C)C=C1c2cc(Cl)ccc2NC(=S)C1(C)C [Compound 18]	< 0.008 mg/L	0.002 mg/L (≈ 0.00715 µM)	0.055 µM	–	IC50 ([2]; first value of compound 18, unit as printed): 0.0543 µM
CC(C)CC=C1c2cc(Cl)ccc2NC(=O)C1(C)C [Compound 19]	–	0.008 mg/L (≈ 0.0288 µM)	0.037 µM	0.0371 µM	–
CC(C)CC=C1c2cc(Cl)ccc2NC(=S)C1(C)C [Compound 20]	< 0.008 mg/L	0.0015 mg/L (≈ 0.0051 µM)	0.022 µM	0.0214 µM	–
CC(C)C=C1c2ccccc2NC(=S)C1(C)C [Compound 24]	–	–	0.27 µM	0.27 µM	–
CCCC=C1c2ccccc2NC(=S)C1(C)C [Compound 28]	0.008 mg/L (≈ 0.0326 µM)	~0.01 mg/L (≈ 0.0408 µM)	0.024 µM	0.0236 µM	–
C=CC=C1c2ccccc2NC(=S)C1(C)C [Compound 30]	< 0.2 mg/L	~0.02 mg/L (≈ 0.0872 µM)	–	–	–
CCCCCC=C1c2ccccc2NC(=S)C12CCC2 [Compound 32]	0.2 mg/L (≈ 0.701 µM)	~0.08 mg/L (≈ 0.28 µM)	–	–	–
CC(C)C=C1c2ccccc2NC(=S)C12CCC2 [Compound 34]	< 0.04 mg/L	~0.01 mg/L (≈ 0.0388 µM)	–	–	–
CCCC=C1c2cc(OC(F)(F)F)ccc2NC(=S)C1(C)C [Compound 36]	< 0.2 mg/L	~0.01 mg/L (≈ 0.0304 µM)	–	–	–
CC=C1c2ccccc2NC(=S)C12CCCC2 [Compound 38]	< 0.2 mg/L	~0.08 mg/L (≈ 0.329 µM)	–	–	–

SMILES	MIC [1, 3]	IC50 [1, 4]	IC50 ([2]; molar value in parentheses)	IC50 [2]	further results
CCCC=C1c2cc(OC)ccc2NC(=O)C1(C)C [Compound 41, E/Z-4-n-butylene-3,4-dihydro-3,3-dimethyl-6-methoxyquinolin-2(1H)-one]	0.2 mg/L (≈ 0.771 µM)	~0.2 mg/L (≈ 0.771 µM)	–	–	–
CCCC=C1c2cc(OC)ccc2NC(=S)C1(C)C [Compound 42, E/Z-4-n-butylene-3,4-dihydro-3,3-dimethyl-6-methoxyquinolin-2(1H)-thione]	< 0.008 mg/L	0.002 mg/L (≈ 0.00726 µM)	0.009 µM	0.00944 µM	–
COc1ccc2c(c1)C(=CC(C)C)C(C)(C)C(=O)N2 [Compound 43]	0.2 mg/L (≈ 0.771 µM)	0.05 mg/L (≈ 0.193 µM)	–	–	–
CCC=C1c2cc(OC)ccc2NC(=O)C1(C)C [Compound 44]	0.2 mg/L (≈ 0.815 µM)	0.06 mg/L (≈ 0.245 µM)	–	–	–
CCC=C1c2cc(OC)ccc2NC(=S)C1(C)C [Compound 45]	0.004 mg/L (≈ 0.0153 µM)	0.002 mg/L (≈ 0.00765 µM)	0.009 µM	0.00918 µM	–
CCOc1ccc2c(c1)C(=CC(C)C)C(C)(C)C(=S)N2 [Compound 47]	< 0.08 mg/L	~0.015 mg/L (≈ 0.0518 µM)	–	–	–
CCCC=C1c2ccccc2NC(=O)C1(CC)CC [Compound 48]	< 0.08 mg/L	~0.01 mg/L (≈ 0.0389 µM)	0.054 µM	0.0544 µM	–
CCCC=C1c2ccccc2NC(=S)C1(CC)CC [Compound 49]	< 0.02 mg/L	~0.002 mg/L (≈ 0.00731 µM)	0.024 µM	0.0256 µM	–
CCC=C1c2ccccc2NC(=O)C1(CC)CC [Compound 50]	< 0.1 mg/L	~0.01 mg/L (≈ 0.0411 µM)	–	–	–
CCC=C1c2ccccc2NC(=S)C1(CC)CC [Compound 51]	0.02 mg/L (≈ 0.0771 µM)	~0.002 mg/L (≈ 0.00771 µM)	0.023 µM	0.0231 µM	–
CCC1(CC)C(=O)Nc2ccccc2C1=CCC(C)C [Compound 52]	0.02 mg/L (≈ 0.0737 µM)	~0.004 mg/L (≈ 0.0147 µM)	0.043 µM	0.0442 µM	–
CCC1(CC)C(=S)Nc2ccccc2C1=CCC(C)C [Compound 53]	0.02 mg/L (≈ 0.0696 µM)	~0.002 mg/L (≈ 0.00696 µM)	0.044 µM	0.0452 µM	–
CCCC=C1c2cc(OCC)ccc2NC(=O)C1(C)C [Compound 54]	0.1 mg/L (≈ 0.366 µM)	0.05 mg/L (≈ 0.183 µM)	–	–	–
CCCC=C1c2cc(OCC)ccc2NC(=S)C1(C)C [Compound 55]	< 0.08 mg/L	~0.006 mg/L (≈ 0.0207 µM)	0.031 µM	0.0311 µM	–
CCOc1ccc2c(c1)C(=CCC(C)C)C(C)(C)C(=O)N2 [Compound 58]	< 0.1 mg/L	–	–	–	IC50 ([1]; HIV-infected lymphocytes, 3 days, unit as printed for compound 58, read-out: IC-50): ~0.02 mg/L (≈ 0.0696 µM)
CCOc1ccc2c(c1)C(=CCC(C)C)C(C)(C)C(=S)N2 [Compound 59]	< 0.02 mg/L	~0.008 mg/L (≈ 0.0264 µM)	0.046 µM	–	IC50 ([2]; unit as printed for compound 59): 0.0461 µM
CCCC=C1c2cc(Cl)ccc2NC(=NO)C1(C)C [Compound 60]	0.0016 mg/L (≈ 0.00574 µM)	~0.0003 mg/L (≈ 0.00108 µM)	0.012 µM	0.0108 µM	–
CCCCCC=C1c2cc(OC)ccc2NC(=S)C1(C)C [Compound 64]	–	–	0.109 µM	0.109 µM	–
C=CC=C1c2cc(OC)ccc2NC(=S)C1(C)C [Compound 68]	–	–	–	~0.0386 µM	–
CC/C=C1/c2cc(Cl)ccc2NC(=S)C1(C)C [Compound 72]	< 0.008 mg/L	–	–	–	–
CCC/C=C1/c2cc(Cl)ccc2NC(=O)C1(C)C [Compound 74, Z-4-n-butylene-6-chloro-3,4-dihydro-3,3-dimethylquinolin-2(1H)-one]	0.04 mg/L (≈ 0.152 µM)	–	–	–	IC50 ([1]; HIV-infected lymphocytes, 3 days, unit as printed for compound 74, read-out: IC-50): 0.02 mg/L (≈ 0.0758 µM)
CCC=C1c2cc(Cl)ccc2NC(=O)C12CCCC2 [Compound 77]	0.2 mg/L (≈ 0.725 µM)	~0.03 mg/L (≈ 0.109 µM)	–	–	–
CC1(C)C(=S)Nc2ccc(F)cc2C1=C1CCCC1 [Compound 143]	> 0.008 mg/L	< 0.008 mg/L	–	–	–

— patent US5798365A, “Substituted quinoline derivatives, a process for their preparation, and their use” (Hoechst Aktiengesellschaft, priority 1994, dated 1998)
